We go through one molecule from BindingDB's records for doi:10.1016/j.ejmech.2009.07.027 (Trinity College, 2009).

This assay can be described thus: Induction of human SERT-dependent cytotoxicity in SERT expressing HEK293 cells after 48 hrs by neutral red assay.

`CCSc1ccc(CC(CC)NC)cc1` (stereo unspecified) [2-N-Methylamino-1-(4-ethylthiophenyl)butane] showed a concentration giving a half-maximal response (EC50) above 100 µM.
